The record followed here is the Kinase Knowledgebase extract (Sharma et al. 2016).

The target of this assay is EGFR (UniProt P00533).
Chain of EGFR (P00533 whole entry, looked up): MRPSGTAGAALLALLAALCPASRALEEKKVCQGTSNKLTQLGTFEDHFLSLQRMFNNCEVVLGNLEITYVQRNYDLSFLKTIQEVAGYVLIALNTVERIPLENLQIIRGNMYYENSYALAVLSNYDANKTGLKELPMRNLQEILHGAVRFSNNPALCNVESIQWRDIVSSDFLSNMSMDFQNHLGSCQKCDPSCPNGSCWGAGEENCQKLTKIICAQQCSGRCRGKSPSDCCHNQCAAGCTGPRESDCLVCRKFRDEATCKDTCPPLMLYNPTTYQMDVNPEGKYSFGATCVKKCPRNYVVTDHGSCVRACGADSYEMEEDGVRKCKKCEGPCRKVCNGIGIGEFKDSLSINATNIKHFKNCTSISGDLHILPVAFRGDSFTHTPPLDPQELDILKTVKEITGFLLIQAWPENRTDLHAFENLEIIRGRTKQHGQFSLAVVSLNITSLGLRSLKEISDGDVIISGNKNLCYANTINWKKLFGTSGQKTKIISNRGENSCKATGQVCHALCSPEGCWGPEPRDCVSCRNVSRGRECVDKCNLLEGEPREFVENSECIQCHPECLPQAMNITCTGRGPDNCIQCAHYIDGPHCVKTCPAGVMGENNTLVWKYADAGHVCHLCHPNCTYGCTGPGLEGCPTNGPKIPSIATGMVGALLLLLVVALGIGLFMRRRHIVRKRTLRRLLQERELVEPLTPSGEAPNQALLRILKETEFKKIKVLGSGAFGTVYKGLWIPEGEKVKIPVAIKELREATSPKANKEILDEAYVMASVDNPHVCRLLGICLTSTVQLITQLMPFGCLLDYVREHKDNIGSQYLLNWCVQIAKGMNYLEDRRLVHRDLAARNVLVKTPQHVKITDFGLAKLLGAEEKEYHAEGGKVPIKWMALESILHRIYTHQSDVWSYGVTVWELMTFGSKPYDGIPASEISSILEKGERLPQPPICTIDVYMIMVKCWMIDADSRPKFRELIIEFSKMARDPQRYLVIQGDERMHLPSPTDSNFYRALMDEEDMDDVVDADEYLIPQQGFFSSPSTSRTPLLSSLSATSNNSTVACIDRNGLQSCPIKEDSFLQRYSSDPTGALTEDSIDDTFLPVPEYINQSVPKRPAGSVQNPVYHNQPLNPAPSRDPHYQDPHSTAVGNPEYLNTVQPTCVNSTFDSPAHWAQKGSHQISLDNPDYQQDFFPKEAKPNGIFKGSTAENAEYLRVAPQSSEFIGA

`CC(=O)N1CCc2ccc(Nc3ncnn4cccc34)cc21` came in with an IC50 of 0.003 to 25 µM.

The compound `CCOC(=O)c1cn2ncnc(Nc3ccc(C)c(O)c3)c2c1-c1ccccc1` registered an IC50 of 0.003 to 25 µM.

On to `Cc1ccc(Nc2ncnn3c(C)cc(C)c23)cc1O`, for which the IC50 lay in the range of 0.003 to 25 µM.

In the case of `COC(=O)c1cn2ncnc(C3C(=O)Nc4ccc(S(=O)(=O)NCCN5CCCC5)cc43)c2c1C` (stereo not given), the IC50 was in the range of 0.003 to 25 µM.

`Cc1c(C(=O)NCCN2CCCC2)cn2ncnc(C3C(=O)Nc4ccccc43)c12` (stereo not given) displayed an IC50 of 0.003 to 25 µM.

`CCc1c(C(=O)OCc2ccccc2)cn2ncnc(Nc3ccc(F)c(Cl)c3)c12` returned an IC50 of 0.003 to 25 µM.

`COC(=O)c1cn2ncnc(-n3c(=O)[nH]c4ccccc43)c2c1C` registered an IC50 of 0.003 to 25 µM.

As for `COC(=O)c1cn2ncnc(-n3[nH]c4ccccc4c3=O)c2c1C`, the IC50 was in the range of 0.003 to 25 µM.

With `CNS(=O)(=O)c1ccc2c(c1)C(c1ncnn3cc(C(=O)OC)c(C)c13)C(=O)N2` (stereo not given), the IC50 is 0.003 to 25 µM.

`COC(=O)c1cn2ncnc(Nc3ccc(C)c([N+](=O)[O-])c3)c2c1C` yielded an IC50 of 0.003 to 25 µM.

`CCOC(=O)c1cn2ncnc(Nc3cccc(Br)c3)c2c1CC` had an IC50 of 0.003 to 25 µM.

In the case of `COc1c(C(=O)NCCCN2CCOCC2)cn2ncnc(C3C(=O)Nc4ccccc43)c12` (stereo not given), the IC50 was in the range of 0.003 to 25 µM.

With `COC(=O)c1cn2ncnc(N3CC(=O)Nc4ccccc43)c2c1C`, the IC50 lay within 0.003 to 25 µM.

The compound `Cc1c(C(=O)CCN2CCOCC2)cn2ncnc(C3C(=O)Nc4ccccc43)c12` (stereo not given) gave an IC50 of 0.003 to 25 µM.

`Cc1c(OCCn2cncn2)cn2ncnc(C3C(=O)Nc4ccccc43)c12` (stereo not given) gave an IC50 of 0.003 to 25 µM.

`Cc1c(NC(=O)NCCCCN2CCOCC2)cn2ncnc(C3C(=O)Nc4ccccc43)c12` (stereo not given): the IC50 was in the range of 0.003 to 25 µM.

On to `COC(=O)c1cn2ncnc(-c3c(O)[nH]c4cc(F)ccc34)c2c1C`, for which the IC50 lay in the range of 0.003 to 25 µM.

`Cc1c(C(=O)NCCCN2CCOCC2)cn2ncnc(C3C(=O)Nc4ccc(S(N)(=O)=O)cc43)c12` (stereo not given) showed an IC50 of 0.003 to 25 µM.

`COc1ccc(Nc2ncnn3cc(C(=O)NCCCN4CCOCC4)c(C)c23)cc1O`: the concentration for half-maximal inhibition (IC50) was 0.003 to 25 µM.

Regarding `Cc1c(C(N)=O)cn2ncnc(C3C(=O)Nc4ccccc43)c12` (stereo not given), the IC50 lay within 0.003 to 25 µM.

`COC(=O)c1cn2ncnc(Nc3cccc(C(=O)O)c3)c2c1C`: the IC50 fell in the range of 0.003 to 25 µM.

For `CCOC(=O)c1cn2ncnc(N3CCOCC3)c2c1CC`, the IC50 lay within 0.003 to 25 µM.

Take `COC(=O)c1cn2ncnc(Nc3cccc4cnccc34)c2c1C`: the IC50 was 0.003 to 25 µM.

On to `COC(=O)c1cn2ncnc(Oc3cccc(O)c3)c2c1C`, for which the concentration for half-maximal inhibition (IC50) fell in the range of 0.003 to 25 µM.

Take `Cc1c(C(=O)NCCCN2CCOCC2)cn2ncnc(C3C(=O)Nc4ccc(F)cc43)c12` (stereo not given): the IC50 was 0.003 to 25 µM.

The compound `CCOC(=O)c1cn2ncnc(NCc3ccccc3)c2c1CC` showed a half-inhibitory concentration (IC50) of 0.003 to 25 µM.

`Cc1c(C(=O)CCN2CCN(C)CC2)cn2ncnc(C3C(=O)Nc4ccccc43)c12` (stereo not given) returned an IC50 of 0.003 to 25 µM.

As for `Cc1ccn2ncnc(Nc3ccc(Br)cc3F)c12`, the IC50 lay within 0.003 to 25 µM.

The compound `COC(=O)c1cn2ncnc(Nc3ccc(Br)c(C)c3)c2c1C` came in with an IC50 of 0.003 to 25 µM.

`Cc1ccc(Nc2ncnn3cc(C(=O)OCc4ccccc4)c(C)c23)cc1O`: the IC50 was in the range of 0.003 to 25 µM.

For `CCOC(=O)c1cn2ncnc(N[C@@H](C)c3ccccc3)c2c1CC`, the IC50 was 0.003 to 25 µM.

Turning to `CCOC(=O)c1cn2ncnc(Nc3ccc4cn[nH]c4c3)c2c1CC`, the IC50 was 0.003 to 25 µM.

In the case of `Cc1ccc(Nc2ncnn3cc(C(=O)NCCCN4CCCC4)c(C)c23)cc1O`, the IC50 is 0.003 to 25 µM.

On to `COC(=O)c1cn2ncnc(Nc3nc4ccccc4s3)c2c1C`, for which the IC50 lay in the range of 0.003 to 25 µM.

Compound `Cc1ccc(Nc2ncnn3cc(C(=O)NCCN(C)C)c(C)c23)cc1O` gave an IC50 of 0.003 to 25 µM.

For `Cc1ccc(Nc2ncnn3cc(Cn4cncn4)c(C)c23)cc1O`, the IC50 was 0.003 to 25 µM.

`CCc1c(C(=O)NCCN2CCCC2)cn2ncnc(Nc3ccc(OC)nc3)c12` gave an IC50 of 0.003 to 25 µM.

Compound `Cc1ccc(Nc2ncnn3ccc(C)c23)c(O)c1` displayed an IC50 of 0.003 to 25 µM.

As for `Cc1c(NS(=O)(=O)CCCN2CCOCC2)cn2ncnc(C3C(=O)Nc4ccccc43)c12` (stereo not given), the IC50 is 0.003 to 25 µM.

For `CCOC(=O)c1cn2ncnc(Nc3ccc(Br)cc3F)c2c1OC`, the IC50 lay within 0.003 to 25 µM.

With `Cc1c(C(=O)OCc2ccccc2)cn2ncnc(C3C(=O)Nc4ccccc43)c12` (stereo not given), the IC50 lay in the range of 0.003 to 25 µM.

`COC(=O)c1cn2ncnc(Nc3ccc(C(C)C)c(O)c3)c2c1C` gave an IC50 of 0.003 to 25 µM.

With `COC(=O)c1cn2ncnc(Nc3ccc(F)c(Cl)c3)c2c1C`, the IC50 lay in the range of 0.003 to 25 µM.

In turn, `COC(=O)c1cn2ncnc(Nc3ccc(F)c(Cl)c3)c2c1CCCOCc1ccccc1` returned an IC50 of 0.003 to 25 µM.

With `COC(=O)c1cn2ncnc(C3C(=O)Nc4ccc(S(=O)(=O)NCCO)cc43)c2c1C` (stereo not given), the IC50 was in the range of 0.003 to 25 µM.

As to `CCOC(=O)c1cn2ncnc(Cc3ccc(F)c(Cl)c3)c2c1C(C)C`, the IC50 lay within 0.003 to 25 µM.

The compound `Cc1ccc(Nc2ncnn3cc(OCCCn4nccn4)c(C)c23)cc1O` gave a 50% inhibitory concentration (IC50) of 0.003 to 25 µM.

With `CCc1c(COCCN2CCOCC2)cn2ncnc(Nc3ccc4c(cnn4Cc4ccccc4)c3)c12`, the IC50 lay in the range of 0.003 to 25 µM.

`CCOC(=O)c1cn2ncnc(Nc3ccc(C)c(O)c3)c2c1OCC`: the IC50 lay in the range of 0.003 to 25 µM.

`CCc1c(NC(=O)OCc2ccccc2)cn2ncnc(Nc3ccc(OC)nc3)c12` came in with an IC50 of 0.003 to 25 µM.

One may read the IC50 as the midpoint of a concentration-inhibition curve.
